Data: patent publication US5494907A, “11-β substituted-19-nor steroids” (Roussel UCLAF, priority 1993, dated 1996)

Key:
[1] = target: T1, hGR (recombinant human glucocorticoid receptor) (Homo sapiens, UniProt P04150); experiment: Relative bond affinity (RBA) on recombinant human glucocorticoid receptor, displacement of tritiated 6,21-dimethyl-Δ1,4,6-pregnatrien-11β,17β-diol-20-yn-3-one; format: binding; conditions: for RBA hGR: Dexamethasone = 100, 0° C., 24 hours; for affinity for the glucocorticoid receptor (in words): conclusion in words
T1 construct: made in house; host or cells: SF9 insect cells, recombinant baculovirus
T1 sequence (P04150 1-777): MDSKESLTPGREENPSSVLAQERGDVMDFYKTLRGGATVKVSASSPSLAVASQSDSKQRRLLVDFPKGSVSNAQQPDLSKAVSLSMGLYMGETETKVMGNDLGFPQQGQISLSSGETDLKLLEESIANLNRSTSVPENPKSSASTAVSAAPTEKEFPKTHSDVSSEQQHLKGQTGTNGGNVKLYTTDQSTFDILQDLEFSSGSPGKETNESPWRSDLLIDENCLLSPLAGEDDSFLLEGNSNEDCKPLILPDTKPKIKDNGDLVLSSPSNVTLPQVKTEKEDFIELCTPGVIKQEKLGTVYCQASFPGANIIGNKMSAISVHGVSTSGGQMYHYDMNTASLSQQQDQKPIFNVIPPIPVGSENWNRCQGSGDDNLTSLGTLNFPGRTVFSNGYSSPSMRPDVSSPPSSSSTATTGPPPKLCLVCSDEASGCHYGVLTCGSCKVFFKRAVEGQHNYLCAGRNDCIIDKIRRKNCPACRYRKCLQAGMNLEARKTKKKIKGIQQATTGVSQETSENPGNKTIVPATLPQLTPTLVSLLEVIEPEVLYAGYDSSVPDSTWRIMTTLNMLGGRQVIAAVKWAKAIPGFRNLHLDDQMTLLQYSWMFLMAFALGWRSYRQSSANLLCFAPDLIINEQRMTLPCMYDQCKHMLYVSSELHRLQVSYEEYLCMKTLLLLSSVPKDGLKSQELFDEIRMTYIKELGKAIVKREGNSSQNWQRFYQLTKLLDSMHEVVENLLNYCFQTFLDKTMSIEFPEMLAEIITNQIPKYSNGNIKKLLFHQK
Source text: (§1) 1--Activity on the hormonal receptors using either the natural hormonal receptor of a rat (AR), or the recombinant human receptor (PR, GR and ER).
Human glucocorticoid receptor
A supernatant of SF9 cells containing the recombinant human glucocorticoid receptor was obtained by the process described above for the progesterone receptor using the cDNA fragment described HOLLENBERG et al. (Nature (1985), Vol. 318 No. 19/26, p. 635) containing the region coding for the human glucocorticoid receptor. The cells were lysed in a lysis buffer (2). The supernatant was incubated at 0° C. for 24 hours with a constant concentration (T) of 6,21-dimethyl-Δ1,4,6-pregnatrien-11β,17β-diol-20-yn-3-one tritiated in the presence of increasing concentrations either of unlabelled dexamethasone (0-1000×10^-9 M), or of the unlabelled product under test (1 to 25000×10^-9 M). The concentration of bound tritiated 6,21-dimethyl-Δ1,4,6-pregnatrien-11β,17β-diol-20-yn-3-one (B) was then measured in each incubate by the technique of adsorption with carbon dextran.
(§2) Calculation of the relative bond affinity (RBA).
(§3) The following 2 curves were traced: percentage of bound tritiated hormone B/BO as a function of the logarithm of the concentration of unlabelled reference hormone or as a function of the logarithm of the concentration of the unlabelled product under test.
(§4) The straight line of the following equation was determined:
(§5) BO=Concentration of bound tritiated hormone in the absence of any unlabelled product,
(§6) B=Concentration of bound tritiated hormone in the presence of a concentration X of unlabelled product,
(§7) B min=Concentration of bound tritiated hormone in the presence of a large excess of cold reference hormone (500 nM). The intersections of the straight line I50 and the curves allowed the evaluation of the concentrations of unlabelled reference hormone (CH) and of the unlabelled product under test (CX) which inhibited by 50% the specific binding of the tritiated hormone on the receptor.
The relative bond affinity (RBA) of the product under test was determined by the equation:
The RBA's of the reference products estradiol, progesterone, dexamethasone and testosterone were arbitrarily taken to be equal to 100.

[2] = target: T2, AR (androgen receptor of the prostate of a rat) (Rattus norvegicus, UniProt P15207); experiment: Relative bond affinity (RBA) on androgen receptor of the prostate of a rat, displacement of tritiated testosterone; format: binding; conditions: Testosterone = 100; 0° C., 24 hours
T2 construct: using either the natural hormonal receptor of a rat (AR); from tissue; host or cells: prostate of castrated male Sprague Dawley rats, high-speed supernatant
T2 sequence (P15207 1-902): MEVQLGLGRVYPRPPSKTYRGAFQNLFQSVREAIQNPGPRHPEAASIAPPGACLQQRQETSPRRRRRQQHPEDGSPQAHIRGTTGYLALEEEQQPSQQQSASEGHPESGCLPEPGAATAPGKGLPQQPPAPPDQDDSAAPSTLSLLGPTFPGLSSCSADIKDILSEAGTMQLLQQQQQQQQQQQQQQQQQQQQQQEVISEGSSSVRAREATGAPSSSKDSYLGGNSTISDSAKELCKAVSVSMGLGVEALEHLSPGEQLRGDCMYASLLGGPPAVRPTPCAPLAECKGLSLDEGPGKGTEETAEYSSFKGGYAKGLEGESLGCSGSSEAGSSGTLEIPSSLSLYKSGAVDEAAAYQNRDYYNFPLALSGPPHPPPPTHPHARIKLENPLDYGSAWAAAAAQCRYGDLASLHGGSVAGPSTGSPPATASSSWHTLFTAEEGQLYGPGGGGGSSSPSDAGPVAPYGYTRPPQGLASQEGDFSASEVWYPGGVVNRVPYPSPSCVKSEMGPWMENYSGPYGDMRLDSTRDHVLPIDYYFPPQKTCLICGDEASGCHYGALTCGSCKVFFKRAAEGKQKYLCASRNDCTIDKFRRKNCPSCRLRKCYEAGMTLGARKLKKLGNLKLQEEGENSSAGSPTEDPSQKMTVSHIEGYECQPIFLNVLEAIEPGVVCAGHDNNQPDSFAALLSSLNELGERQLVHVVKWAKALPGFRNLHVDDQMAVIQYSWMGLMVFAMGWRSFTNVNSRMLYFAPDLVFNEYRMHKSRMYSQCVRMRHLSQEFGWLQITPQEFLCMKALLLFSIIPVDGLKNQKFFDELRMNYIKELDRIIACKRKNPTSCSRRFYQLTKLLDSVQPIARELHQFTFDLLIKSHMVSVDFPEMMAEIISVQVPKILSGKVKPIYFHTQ
Protocol: as §1
Androgen receptor of the prostate of a rat
Male Sprague Dawley EOPS rats weighing 180 to 200 g were castrated and 24 hours after the castration, the animals were sacrificed. The prostates were removed, weighed and homogenized at 0° C. using a Potter teflon-glass in a TS buffered solution (10 mM Tris, 0.25 M saccharose, 2 mMDTT, 20 mM MoNa, 0.1 mM PMSF, pH 7.4) (1 g of tissue per 8 ml of TS). The homogenate was centrifuged (209,000 g for 30 minutes) at 0° C. Aliquots of the supernatant were incubated at 0° C. for 24 hours with a constant concentration (T) of tritiated testosterone in the presence of increasing concentrations, either of unlabelled testosterone (0 to 1000×10^-9 M), or of the product under test (1 to 25000×10^-9 M). The concentration of bound tritiated testosterone (B) was measured in each incubate by the technique of adsorption with carbon dextran.
as §2, §3, §4, §5, §6, §7
The relative bond affinity (RBA) of the product under test was determined by the equation: […]

Row | SMILES | RBA hGR [1] | affinity for the glucocorticoid receptor (in words) [1] | RBA AR [2]
1 | CCCCNS(=O)(=O)CCCCCOc1ccc([C@H]2C[C@]3(C)[C@@H](O)CC[C@H]3[C@@H]3CCc4cc(O)ccc4[C@H]32)cc1 [Example 2, N-butyl-5-[4-(Δ1,3,5(10)-estratrien-3,17β-diol-11β-yl)phenoxy]-pentanesulfonamide] | 82 | marked affinity | 3
2 | CCCCN(C)S(=O)(=O)CCCCCOc1ccc([C@H]2C[C@]3(C)[C@@H](O)CC[C@H]3[C@@H]3CCc4cc(O)ccc4[C@H]32)cc1 [Example 7, N-butyl-5-[4-(Δ1,3,5(10)-estratrien-3,17β-diol-11β-yl)phenoxy]-N-methyl-pentanesulfonamide] | 152 | marked affinity | 2.5
3 | CN(CC(F)(F)C(F)(F)C(F)(F)F)S(=O)(=O)CCCCCOc1ccc([C@H]2C[C@]3(C)[C@@H](O)CC[C@H]3[C@@H]3CCc4cc(O)ccc4[C@H]32)cc1 [Example 8, 5-[4-(Δ1,3,5(10)-estratrien-3,17β-diol-11βyl)-Phenoxy]-N-(2,2,3,3,4,4,4-heptafluorobutyl)-N-methyl-pentanesulfonamide] | 114 | marked affinity | 1.5
